Assay results from publication PMC8253220, “Molecular design, synthesis and in vitro biological evaluation of thienopyrimidine–hydroxamic acids as chimeric kinase HDAC inhibitors: a challenging approach to combat cancer” (Journal of Enzyme Inhibition and Medicinal Chemistry, 2021).
pIC50: −log10 of the molar value.

What was measured:
Type in all cases: biochemical
HDAC6 = target: T1, HDAC6 (Homo sapiens, UniProt Q9UBN7); experiment: In vitro HDAC6 inhibitory assay (BPS Bioscience, fluorogenic); settings: 10 µM
T1 construct: purchased BPS Bioscience 50006
T1 sequence (Q9UBN7 1-1215): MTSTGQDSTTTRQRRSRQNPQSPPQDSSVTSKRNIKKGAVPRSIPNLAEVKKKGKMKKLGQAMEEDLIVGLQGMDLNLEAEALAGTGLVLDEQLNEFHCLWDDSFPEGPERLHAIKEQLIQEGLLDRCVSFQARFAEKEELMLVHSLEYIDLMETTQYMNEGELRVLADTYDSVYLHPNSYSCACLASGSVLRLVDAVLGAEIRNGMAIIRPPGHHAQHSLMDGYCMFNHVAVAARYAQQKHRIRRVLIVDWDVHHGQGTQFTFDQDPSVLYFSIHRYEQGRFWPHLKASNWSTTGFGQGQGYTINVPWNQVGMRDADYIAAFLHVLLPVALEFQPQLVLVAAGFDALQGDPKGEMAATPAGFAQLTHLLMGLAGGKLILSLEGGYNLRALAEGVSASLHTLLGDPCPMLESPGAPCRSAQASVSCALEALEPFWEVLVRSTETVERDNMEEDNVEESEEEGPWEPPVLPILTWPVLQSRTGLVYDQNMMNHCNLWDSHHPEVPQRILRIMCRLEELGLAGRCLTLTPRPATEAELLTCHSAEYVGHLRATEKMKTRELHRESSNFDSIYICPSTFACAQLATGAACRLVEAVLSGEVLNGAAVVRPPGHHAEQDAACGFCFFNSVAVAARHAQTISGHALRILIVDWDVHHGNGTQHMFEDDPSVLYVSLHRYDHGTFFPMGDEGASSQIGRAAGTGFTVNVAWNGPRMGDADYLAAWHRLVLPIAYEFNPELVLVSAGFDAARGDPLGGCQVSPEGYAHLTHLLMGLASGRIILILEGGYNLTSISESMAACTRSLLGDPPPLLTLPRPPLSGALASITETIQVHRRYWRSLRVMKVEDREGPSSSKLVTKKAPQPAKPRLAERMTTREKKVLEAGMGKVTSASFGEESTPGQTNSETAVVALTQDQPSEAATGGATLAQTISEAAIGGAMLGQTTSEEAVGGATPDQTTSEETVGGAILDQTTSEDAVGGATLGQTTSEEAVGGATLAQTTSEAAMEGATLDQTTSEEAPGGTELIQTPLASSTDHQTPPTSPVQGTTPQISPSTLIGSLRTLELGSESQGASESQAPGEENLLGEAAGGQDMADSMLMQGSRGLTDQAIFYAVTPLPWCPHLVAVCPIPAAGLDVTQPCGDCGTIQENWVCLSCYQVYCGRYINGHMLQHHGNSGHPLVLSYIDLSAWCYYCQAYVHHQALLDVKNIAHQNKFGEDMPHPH
Method: (1 picture or pasted object on this page, not shown here)
HDAC activity assays were performed in duplicates at each concentration. The

VEGFR-2 = VEGFR-2 (Homo sapiens, UniProt P35968); experiment: In vitro VEGFR-2 tyrosine kinase inhibitory assay (Z'-LYTE, SelectScreen); settings: for inhibition at 0.0001 µM: 0.1 nM compound; for inhibition at 0.0001 µM / inhibition at 0.001 µM / inhibition at 0.01 µM / inhibition at 0.1 µM / inhibition at 1 µM: 10 μM ATP, read-out: % Inhibition mean, KDR (VEGFR2); for inhibition at 0.001 µM: 1 nM compound; for inhibition at 0.01 µM: 10 nM compound; for inhibition at 0.1 µM: 100 nM compound; for inhibition at 1 µM: 1000 nM compound; for pIC50: read-out: IC50 in enzyme assays VEGFR-2
VEGFR-2, sequence (P35968 20-1356): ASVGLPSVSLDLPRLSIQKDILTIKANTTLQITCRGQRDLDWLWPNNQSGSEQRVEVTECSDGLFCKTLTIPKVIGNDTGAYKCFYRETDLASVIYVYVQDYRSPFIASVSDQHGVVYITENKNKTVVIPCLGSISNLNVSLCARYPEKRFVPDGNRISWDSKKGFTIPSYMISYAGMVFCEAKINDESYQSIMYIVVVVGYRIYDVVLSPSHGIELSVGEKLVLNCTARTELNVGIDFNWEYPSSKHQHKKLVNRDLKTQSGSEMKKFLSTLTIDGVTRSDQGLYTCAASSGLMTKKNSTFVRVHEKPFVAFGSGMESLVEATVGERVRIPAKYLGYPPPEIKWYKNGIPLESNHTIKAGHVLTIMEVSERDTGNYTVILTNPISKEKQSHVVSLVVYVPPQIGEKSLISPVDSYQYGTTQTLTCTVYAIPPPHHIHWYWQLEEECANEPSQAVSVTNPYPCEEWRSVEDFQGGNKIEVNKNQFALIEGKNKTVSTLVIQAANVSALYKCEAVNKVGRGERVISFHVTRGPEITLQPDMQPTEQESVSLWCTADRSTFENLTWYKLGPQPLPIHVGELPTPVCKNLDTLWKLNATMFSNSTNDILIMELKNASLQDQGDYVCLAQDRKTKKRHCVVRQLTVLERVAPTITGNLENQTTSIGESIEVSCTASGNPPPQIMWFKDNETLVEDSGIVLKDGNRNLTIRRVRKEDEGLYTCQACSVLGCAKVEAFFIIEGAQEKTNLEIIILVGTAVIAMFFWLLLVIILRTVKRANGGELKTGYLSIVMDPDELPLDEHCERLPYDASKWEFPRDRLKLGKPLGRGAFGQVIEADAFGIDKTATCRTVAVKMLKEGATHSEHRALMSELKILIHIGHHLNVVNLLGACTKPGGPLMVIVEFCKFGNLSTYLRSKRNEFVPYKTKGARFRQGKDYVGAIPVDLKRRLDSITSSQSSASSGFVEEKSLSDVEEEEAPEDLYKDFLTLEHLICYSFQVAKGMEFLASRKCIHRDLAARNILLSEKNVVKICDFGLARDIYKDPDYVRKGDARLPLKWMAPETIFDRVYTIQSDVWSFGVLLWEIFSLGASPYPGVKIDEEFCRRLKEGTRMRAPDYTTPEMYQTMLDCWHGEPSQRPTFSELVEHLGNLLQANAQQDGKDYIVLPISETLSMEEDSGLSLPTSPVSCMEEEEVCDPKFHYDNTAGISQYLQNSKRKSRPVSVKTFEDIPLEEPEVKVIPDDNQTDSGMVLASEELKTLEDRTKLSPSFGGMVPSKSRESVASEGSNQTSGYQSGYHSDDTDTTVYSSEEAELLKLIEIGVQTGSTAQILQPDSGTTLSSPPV
Method: The target compounds were evaluated for their in vitro inhibitory activities against EGFR, VEGFR-2, and HDAC6. The EGFR and VEGFR-2 inhibitory assays were performed at Thermo Fischer Scientific, Madison, WI, USA (SelectScreenServices@thermofisher.com). The HDAC inhibitory assays were performed at BPS Bioscience, San Diego, CA, USA (www.bpsbioscience.com). Initially, all of the synthesised target compounds were evaluated for their percent inhibitory activity against EGFR, VEGFR-2, and HDACs at 10 µM single dose concentration, in which their mean percent inhibition is summarised in (Figure 5, Tables 1 and [2]). Representative compounds were evaluated for their percent inhibitory activity against EGFR and VEGFR-2 at 6 different concentrations (0.1 nM, 1 nM, 10 nM, 100 nM, 1 µM, 10 µM) to subsequently calculate their IC50 values (Table 3). Additionally, all of the synthesised target compounds were submitted to the National Cancer Institute “NCI” Bethesda, Maryland, USA (www.dtp.nci.nih.gov), to evaluate theirs in vitro antiproliferative activities against NCI 60- cancer cell line panel.
In vitro enzyme inhibition determination for the synthesised compounds was carried out in Thermo Fischer Scientific, Madison, WI, USA (SelectScreenServices@thermofisher.com). The EGFR and VEGFR-2 tyrosine kinase % inhibitory activity at a single-dose concentration of 10 µM was performed initially then representative compounds were evaluated at single-dose concentrations of (0.1 nM, 1 nM, 10 nM, 100 nM, 1 µM) using ZYLTE technology. A fluorescence-based, coupled-enzyme format is employed in the biochemical assay and depends on the sensitivity of proteolytic cleavage to non-phosphorylated and phosphorylated peptides. Then IC50 values for selected compounds were determined by GraphPad Prism at Misr international university.

Hela nuclear extracts = experiment: Hela nuclear extract HDAC inhibitor assay (BPS Bioscience); settings: 10 µM
Method: The purpose of the study is to determine the effects of twenty compounds from Misr International University on the enzymatic activities of hela nuclear extracts using an in vitro […]
7a Solution 10mM DMSO 10 10 % DMSO in
7b Solution 10mM DMSO 10 10 % DMSO in
7d Solution 10mM DMSO 10 10 % DMSO in
2.3 Experimental Conditions
2.3.1 Enzymes and Substrates
Assay Catalog # Substrate
Hela Nuclear Exctract 50053 10 µM HDAC Substrate 3
For the hela nuclear extracts, hela cells were grown to 90 % confluency. Hela nuclear extracts were prepared from the Nuclear Extraction Kit from abcam (Catalog # ab113474). The final total protein concentration was calculated to be 2.4 µg/µl. From this, the hela nuclear extracts was diluted 20-fold in HDAC assay buffer and 5 µl of the dilution was added to a 50 µl reaction.
The compounds are dissolved in DMSO. A series of dilutions of the compounds were prepared with 10% DMSO in HDAC assay buffer and 5 µl of the dilution was added to a 50 µl reaction so that the final concentration of DMSO is 1 % in all of […]
The enzymatic reactions for the hela nuclear extract were conducted in duplicate at 37 °C for 60 minutes in a 50 µl mixture containing HDAC assay buffer, 5 µg BSA, an HDAC substrate (see 2.3.1), hela nuclear extract, and a test compound (see 2.2).
After enzymatic reactions, 50μl of 2 x HDAC Developer was added to each well for the hela nuclear extract and the plate was incubated at room temperature for an additional 15 […]
Fluorescence intensity was measured at an excitation of 360 nm and an emission of 460 nm using a Tecan Infinite M1000 microplate reader.
Hela nuclear extract activity assays were performed in duplicates at each concentration.
The fluorescent intensity data were analyzed using the computer software, Graphpad Prism. In the absence of the compound, the fluorescent intensity (Ft) in each data set was defined as 100% activity. In the absence of hela nuclear extract, the fluorescent intensity (Fb) in each data set was defined as 0% activity. The percent activity in the presence of each compound was calculated according to the following equation: %activity = (F-Fb)/(Ft-Fb), where F= the fluorescent intensity in the presence of the compound.
The values of percentage activity were plotted on a bar graph.

`Cc1c(C(=O)NCCC(=O)NO)sc2ncnc(Nc3ccc(NC(=O)Nc4ccccc4)cc3)c12` [Compound 11a, 1–(4-(6-((3-(hydroxyamino)-3-oxopropyl)carbamoyl)-5-methylthieno[2,3-d]pyrimidin-4-ylamino)phenyl)-3-phenylurea] was tested, and the “Mean % inhibition HDAC6” value (HDAC6) was 7%, the inhibition at 10 µM (HDAC6) was 5% and the inhibition at 10 µM (VEGFR-2; 10 µM single dose) was 47%. The “% Inhibition Hela Nuclear Extracts” value (Hela nuclear extracts) was 0%.

In the case of `Cc1c(C(=O)NO)sc2ncnc(Nc3ccc(NC(=O)Nc4cccc(C(F)(F)F)c4)cc3)c12` [Compound 7c, 1–(4-(6-(hydroxycarbamoyl)-5-methylthieno[2,3-d]pyrimidin-4-ylamino)phenyl)-3–(3-(trifluoromethyl)phenyl)urea], the inhibition at 10 µM (HDAC6) was 8%, the inhibition at 0.0001 µM (VEGFR-2) was 6% and the inhibition at 0.001 µM (VEGFR-2) was 6%. The inhibition at 0.01 µM (VEGFR-2) was 2%, the inhibition at 0.1 µM (VEGFR-2) was 36% and the inhibition at 1 µM (VEGFR-2) was 90%. The “Mean % inhibition VEGFR-2” value (VEGFR-2; 10 µM single dose) was 100%, the inhibition at 10 µM (VEGFR-2; 10 µM single dose) was 104% and the pIC50 (VEGFR-2) was 6.72. The “% Inhibition Hela Nuclear Extracts” value (Hela nuclear extracts) was 3%.

For `COc1cccc(NC(=O)Nc2ccc(Nc3ncnc4sc(C(=O)NO)c(C)c34)cc2)c1` [Compound 7b, 1–(4-(6-(hydroxycarbamoyl)-5-methylthieno[2,3-d]pyrimidin-4-ylamino)phenyl)-3–(3-methoxyphenyl)urea], the “Mean % inhibition HDAC6” value (HDAC6) was 6%, the inhibition at 10 µM (HDAC6) was 8% and the inhibition at 10 µM (VEGFR-2; 10 µM single dose) was 78%. For the same molecule, the “% Inhibition Hela Nuclear Extracts” value (Hela nuclear extracts) was 2%.

For `Cc1c(C(=O)NCCCC(=O)NO)sc2ncnc(Nc3ccc(Cl)cc3)c12` [Compound 20c, 4–(4-chlorophenylamino)-N-(4-(hydroxyamino)-4-oxobutyl)-5-methylthieno[2,3-d]pyrimidine-6-carboxamide], the “Mean % inhibition HDAC6” value (HDAC6) was 7%, the inhibition at 10 µM (HDAC6) was 9% and the inhibition at 10 µM (VEGFR-2; 10 µM single dose) was 35%. For the same molecule, the “% Inhibition Hela Nuclear Extracts” value (Hela nuclear extracts) was 3%.

`Cc1c(C(=O)NCCC(=O)NO)sc2ncnc(Nc3ccc(NC(=O)Nc4cccc(C(F)(F)F)c4)cc3)c12` [Compound 11c, 1–(4-(6-((3-(hydroxyamino)-3-oxopropyl)carbamoyl)-5-methylthieno[2,3-d]pyrimidin-4-ylamino)phenyl)-3–(3-(trifluoromethyl)phenyl)urea] was tested, and the inhibition at 10 µM (HDAC6) was 8%, the inhibition at 10 µM (VEGFR-2; 10 µM single dose) was 91% and the “% Inhibition Hela Nuclear Extracts” value (Hela nuclear extracts) was 5%.

With `Cc1c(C(=O)NCCCC(=O)NO)sc2ncnc(Nc3ccc(F)c(Cl)c3)c12` [Compound 20d, 4–(3-chloro-4-fluorophenylamino)-N-(4-(hydroxyamino)-4-oxobutyl)-5-methylthieno[2,3-d]pyrimidine-6-carboxamide] the “Mean % inhibition HDAC6” value (HDAC6) was 9%, the inhibition at 10 µM (VEGFR-2; 10 µM single dose) was 20% and the “% Inhibition Hela Nuclear Extracts” value (Hela nuclear extracts) was 0%.

In the case of `COc1cccc(NC(=O)Nc2ccc(Nc3ncnc4sc(C(=O)NCCCC(=O)NO)c(C)c34)cc2)c1` [Compound 12b, 1–(4-(6-((4-(hydroxyamino)-4-oxobutyl)carbamoyl)-5-methylthieno[2,3-d]pyrimidin-4-ylamino)phenyl)-3–(3-methoxyphenyl)urea], the “Mean % inhibition HDAC6” value (HDAC6) was 7%, the inhibition at 10 µM (HDAC6) was 13% and the inhibition at 10 µM (VEGFR-2; 10 µM single dose) was 83%. For the same molecule, the “% Inhibition Hela Nuclear Extracts” value (Hela nuclear extracts) was 3%.

In the case of `Cc1c(C(=O)NO)sc2ncnc(Nc3cccc4[nH]cnc34)c12` [Compound 15a, 4-(1H-benzo[d]imidazol-4-ylamino)-N-hydroxy-5-methylthieno[2,3-d]pyrimidine-6-carboxamide], the “Mean % inhibition HDAC6” value (HDAC6) was 8%, the inhibition at 10 µM (HDAC6) was 7% and the inhibition at 10 µM (VEGFR-2; 10 µM single dose) was 36%. The “% Inhibition Hela Nuclear Extracts” value (Hela nuclear extracts) was 3%.

For `Cc1c(C(=O)NO)sc2ncnc(Nc3ccc(F)c(Cl)c3)c12` [Compound 15d, 4–(3-chloro-4-fluorophenylamino)-N-hydroxy-5-methylthieno[2,3-d]pyrimidine-6-carboxamide], the “Mean % inhibition HDAC6” value (HDAC6) was 4%, the inhibition at 10 µM (HDAC6) was 7% and the inhibition at 10 µM (VEGFR-2; 10 µM single dose) was 54%. For the same molecule, the “% Inhibition Hela Nuclear Extracts” value (Hela nuclear extracts) was 4%.

In the case of `Cc1c(C(=O)NCCC(=O)NO)sc2ncnc(Nc3ccccc3)c12` [Compound 19b, N-(3-(hydroxyamino)-3-oxopropyl)-5-methyl-4-(phenylamino)thieno[2,3-d]pyrimidine-6-carboxamide], the inhibition at 10 µM (HDAC6) was 10%, the inhibition at 10 µM (VEGFR-2; 10 µM single dose) was 13% and the “% Inhibition Hela Nuclear Extracts” value (Hela nuclear extracts) was 5%.

`Cc1c(C(=O)NO)sc2ncnc(Nc3ccc(Cl)cc3)c12` [Compound 15c, 4–(4-chlorophenylamino)-N-hydroxy-5-methylthieno[2,3-d]pyrimidine-6-carboxamide] was tested, and the “Mean % inhibition HDAC6” value (HDAC6) was 7%, the inhibition at 10 µM (HDAC6) was 9% and the inhibition at 0.0001 µM (VEGFR-2) was 7%. It also gave an inhibition at 0.001 µM (VEGFR-2) of 4%, an inhibition at 0.01 µM (VEGFR-2) of 7% and an inhibition at 0.1 µM (VEGFR-2) of 15%. It also gave an inhibition at 1 µM (VEGFR-2) of 39%, an inhibition at 10 µM (VEGFR-2; 10 µM single dose) of 87% and a pIC50 (VEGFR-2) of 5.25. The “% Inhibition Hela Nuclear Extracts” value (Hela nuclear extracts) was 4%.

For `Cc1c(C(=O)NCCCC(=O)NO)sc2ncnc(Nc3ccc(NC(=O)Nc4ccccc4)cc3)c12` [Compound 12a, 1–(4-(6-((4-(hydroxyamino)-4-oxobutyl)carbamoyl)-5-methylthieno[2,3-d]pyrimidin-4-ylamino)phenyl)-3-phenylurea], the inhibition at 10 µM (HDAC6) was 7%, the inhibition at 10 µM (VEGFR-2; 10 µM single dose) was 48% and the “% Inhibition Hela Nuclear Extracts” value (Hela nuclear extracts) was 2%.
